Assay [1] has as its target T1, b1b2 domain of neuropilin-1 (NRP-1) (Homo sapiens, UniProt O14786).
T1 sequence (O14786 273-586 limits assumed): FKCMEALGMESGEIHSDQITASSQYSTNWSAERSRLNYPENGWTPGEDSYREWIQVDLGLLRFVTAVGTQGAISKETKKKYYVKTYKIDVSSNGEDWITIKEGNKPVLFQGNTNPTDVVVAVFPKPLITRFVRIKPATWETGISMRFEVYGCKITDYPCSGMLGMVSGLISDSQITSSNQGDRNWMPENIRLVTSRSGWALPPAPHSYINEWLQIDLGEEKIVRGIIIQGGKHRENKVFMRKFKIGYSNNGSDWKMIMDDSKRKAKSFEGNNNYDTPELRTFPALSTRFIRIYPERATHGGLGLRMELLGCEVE
Nature of the assay: Fluorescence polarization binding of FAM-peptide to NRP-1. The protocol: FIG. 8 is a graph showing specificity of TT1 binding. Specificity of TT1 was further evaluated by measuring the binding of FAM-TT1 to recombinant non-target protein, b1b2 domain of neuropilin-1 (NRP-1). The binding was studied by fluorescence polarization. […] Each data point presents average±S.D., n=4-6.
The assay was initially set up in 20 μl well volume in 384 well plate (Corning Life Sciences), and measurements were carried out using PheraStar FS plate reader (BMG LABTECH, Ortenberg, Germany) in quadruplicate. Peptide and protein stock solutions were diluted to desired concentration with assay buffer (50 mM BIS-TRIS pH 7.4, 0.05% Tween20, 1 mM DTT). FAM-labeled peptides were protected from light during the experiment to avoid photobleaching. Optimal concentration of fluorescein (FAM) labeled-peptides for the assay was determined by measuring the limit of detection (LOD), signal-to-background ratio (S/B), and stability of mP value over series of peptide concentrations. In the binding assay, the concentration of FAM-peptide was kept constant, and the FP was measured over the range of target protein concentrations. The peptide dissociation constant (KD) was obtained by fitting the binding curve into Michaelis-Menten kinetics in GraphPad Prism-software (GraphPad Software, Inc., CA, USA). […]

In assay [2] the target is T2, p32 protein (Homo sapiens, UniProt Q07021).
T2 construct: 6xHis; host or cells: Rosetta-gami-2 cells (Novagen); an E. coli strain by own knowledge
T2 sequence (Q07021 74-282): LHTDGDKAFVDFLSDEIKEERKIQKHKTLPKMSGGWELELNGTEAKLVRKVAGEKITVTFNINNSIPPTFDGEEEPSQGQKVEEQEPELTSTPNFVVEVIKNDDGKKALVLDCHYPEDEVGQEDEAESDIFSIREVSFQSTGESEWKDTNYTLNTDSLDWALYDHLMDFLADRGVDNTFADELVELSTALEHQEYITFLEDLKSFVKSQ
Nature of the assay: Fluorescence polarization assay: displacement of FAM-TT1 from p32 (HTS, dose response, unlabeled peptide competition). In kind it is binding. To be noted: for inhibition at 25 µM: high-throughput screen hits, inhibition of TT1-p32 interaction, library compounds 25 μM (Table 1), b410 says 100 μM; for inhibition at 100 µM: highest concentration used, read-out: inhibition of FAM-TT1 binding to p32 in FP assay; for dose-dependent inhibition of FAM-TT1 binding to p32: 8.25 μM to 100 μM. On the procedure:
Fluorescence polarization (FP)-based assay was used for solution-based screening of compound libraries for p32 binding compounds. […] In FP assay, peptide conjugated with a fluorescent label (fluorescein-AM, FAM) is excited with polarized light. […] 6×-His-Tagged p^32 was expressed in Rosetta-gami-2 cells (Novagen). The protein was purified by IMAC using HIS-select resin (Sigma) with an imidizole gradient from 20-300 mM and eluted fractions were analyzed on analytical SDS-PAGE. […] Fluorescence polarization is given as milli-polarization (mP) value, which is obtained from equation (1):
mP=1000*(S−P)/(S+P), (Eq. 1)
The assay was initially set up in 20 μl well volume in 384 well plate (Corning Life Sciences), and measurements were carried out using PheraStar FS plate reader (BMG LABTECH, Ortenberg, Germany) in quadruplicate. Peptide and protein stock solutions were diluted to desired concentration with assay buffer (50 mM BIS-TRIS pH 7.4, 0.05% Tween20, 1 mM DTT). FAM-labeled peptides were protected from light during the experiment to avoid photobleaching. Optimal concentration of fluorescein (FAM) labeled-peptides for the assay was determined by measuring the limit of detection (LOD), signal-to-background ratio (S/B), and stability of mP value over series of peptide concentrations. In the binding assay, the concentration of FAM-peptide was kept constant, and the FP was measured over the range of target protein concentrations. The peptide dissociation constant (KD) was obtained by fitting the binding curve into Michaelis-Menten kinetics in GraphPad Prism-software (GraphPad Software, Inc., CA, USA).
FAM-TT-1 and p32 solutions are prepared just before experiment, and stored on ice during the screen; the peptide is shielded from light. • 1. […] Dispense 1.5 μL of assay buffer (50 mM BIS-TRIS pH 7.4, 0.05% Tween 20, 1 mM DTT) into columns 1-4 • 3. […] Dispense 37.5 nL of compounds (2 mM) into columns 5-44 • 5. Spin plate • 6. Incubate 20 min • 7. Dispense 1.5 μL FAM-TT-1 peptide (20 nM) into all columns • 8. Shake plate and spin plate • 9. Incubate 25 min • 10. Read plate on PheraStar FS
Chemical library of ˜50,000 compounds from ChemBridge (San Diego, Calif.) was screened in High-Throughput Screening Facility at Conrad Prebys Center for Chemical Genomics (Sanford-Burnham Medical Research Institute, La Jolla, Calif.). […] Peptide and protein were diluted immediately prior to screening, kept on ice during screening, and FAM-peptide was protected from light throughout the experiment. […]

Assay [3] deals with T2, p32 protein. Briefly: TT1 phage binding inhibition assay (ELISA-type). Conditions: 100 μM compound. On the procedure:
The binding of individual phage to p32 was verified using ELISA-type of phage binding assay. 96-well plates (Corning Life Sciences, Tewksbury, Mass., USA) were coated with 100 μL of 5 μg/mL p32 in PBS at 4° C. overnight, washed 3 times with 200 μL of PBST (PBS+0.05% Tween-20), blocked with 200 μL of 0.5% bovine serum albumin (BSA) in PBST for 1 h at 37° C., and washed 3 times with PBST. Phages (1.11*10^8 pfu in 100 μL PBST) were added to p32-coated/BSA-blocked wells, the plate was incubated at 4° C. overnight, and washed 3 times with PBST. Subsequently, the plates were incubated with 100 μL in-house prepared polyclonal rabbit anti-T7 antibody diluted 1:1000 in PBST for 1 h at 4° C., and washed 3 times with washing buffer. Horseradish peroxidase (HRP)-labeled anti-rabbit IgG (Sigma-Aldrich) was diluted 1:1000 in PBS, and 100 μL was added to the wells, followed by 1 h incubation at 4° C. and washing 3 times. Next, 100 μL of OPD silver and gold substrate (Sigma-Aldrich) was added to the wells and incubated at room temperature until visible color was observed (<30 min). The reaction was stopped by adding 50 μL of 1M H2SO4, and the plate was read at 492 nm (Varioskan Flash, Thermo Scientific, Waltham, Mass., USA).
The ability to inhibit TT1-phage binding to p32 protein was used as a secondary assay to verify the hit compounds. The competition assay was based on the phage binding assay described above with minor modifications. ELISA plates were coated with 2.5 μg/mL p32, incubated with phages (1.11*10^8 pfu in 100 μL PBST) and 100 μM hit compounds at 4° C. overnight, and followed by antibody incubation and chromogenic reaction. Negative controls included DMSO at concentration it was used to dissolve the hit compounds.

Another assay concerns atherosclerotic plaques. Nature of the assay: Plaque homing of FAM-labeled peptides in ApoE null mice on high-fat diet. To be noted: 100 μg FAM-labeled peptide IV, one hour.
Another assay deals with T3, b1b2 domain of NRP-1 (Homo sapiens, UniProt O14786).
T3 sequence (O14786 273-586 limits assumed): T1 sequence (O14786 273-586 limits assumed)
Briefly: Fluorescence polarization displacement of FAM-RPARPAR from NRP-1. To be noted: for effect on RPARPAR peptide binding to NRP-1: specificity assay, up to 100 μM. In kind it is binding. On the procedure:
Results of the high-throughput screen were confirmed in dose response tests. 8.25 μM to 100 μM dilutions of the compounds that displaced FAM-peptide from p32 were used in competition with FAM-peptide as described in previous section. Specificity of the hit compounds was verified by examining their binding to a different protein, b1b2 domain of NRP-1 (Vander Kooi et al., Proc. Natl. Acad. Sci. U.S.A., 10.1073/pnas.0700043104). Experimental method for NRP-1 b1b2 was developed and validated similarly to p32, using FAM-RPARPAR peptide as a known peptide ligand for NRP-1. The displacement of FAM-RPARPAR from NRP-1 protein by the hit compounds was studied in 384-well format, as described above.

The target of assay [4] is T2, p32 protein. Briefly: NMR 1D 1H-aliph spectra of p32 with compounds. The class given is binding. Conditions: 5 μM p32; compounds 100 and 500 μM; TT1 70 μM. The protocol:
FIGS. 3A and 3B are graphs showing NMR based evaluation of binding of compounds 4014008 and 7933989 to P32 protein. The ID ^1H-aliph spectra of 5 μM P32 in the absence (bottom) and presence of compounds #4014008 (A) and #7933989 (B) at 100 μM (second from bottom) and 500 μM (second from top) were collected. As a control, the spectrum of p32 in the presence of the known peptide binder, TT1 at 70 μM, was also collected (top).
All the NMR experiments were carried out on a Bruker Avance 700 spectrometer equipped with a TCI cryoprobe at T=293 K. For structure determinations, the peptide concentration was 100 μM in the NMR buffer in presence of 150 μM of ZnCl2. One-dimensional (1D) 1H spectra were acquired with a spectral width of 8417.51 Hz, relaxation delay 1.0 s, 8 k data points for acquisition and 16 k for transformation.

Entries after “also recorded” stand apart in the source; their conditions may differ. Bridges are numbered along the chain shown (N, C = ends). Where no end group is shown, it is not given here. FAM = 5(6)-carboxyfluorescein; Ahx = NCCCCCC(=O)O

From the text for atherosclerotic plaques: One hour later, the mice can be perfused through the heart under anesthesia, and tissues were collected. Accumulation of FAM-labeled peptides can be visualized with UV excitation. Atherosclerotic aortas can be sectioned at the aortic root level, and examined by confocal microscopy. […] CD31 staining can be used to visualize the endothelium over the plaque.
One hour later, the mice were perfused through the heart under anesthesia, and tissues were collected. Accumulation of FAM-labeled peptides was visualized with UV excitation. Atherosclerotic aortas were sectioned at the aortic root level, and examined by confocal microscopy. […] CD31 staining was used to visualize the endothelium over the plaque.

RPARPAR [reference compound]: the “binding to b1b2 domain of NRP-1” value in assay [1] is listed as “showed strong affinity”. Moreover, in the assay with p32 protein [2] (unlabeled peptides titrated up to 100 μM), the “inhibition (dislocation) of FAM-TT1 binding to p32 by unlabeled peptide” value was “not and did not dislocate FAM-TT1”.

On to `CN1CCc2onc(-c3ccc(F)c(F)c3)c2C1` [Compound 91984046], for which, at p32 protein [3], at 100 µM the inhibition was 20%. Besides, on p32 protein [2], the inhibition at 25 µM was determined as 22.5% and the inhibition at 100 µM lay in the range of 65 to 75%.

As to “FAM-LyP-1: FAM-labeled LyP-1 peptide (CGNKRTRGC; disulfide 1-9 (inferred); not fully specified (N-terminus))”, in the assay on atherosclerotic plaques, the “homing to atherosclerotic plaques” value is given as “signal was seen inside plaques”.

For `CC1(C)CN=C(NCCNC2=NCC(C)(C)S2)S1` [Compound 7933989], the inhibition at 100 µM at p32 protein [3] came out at 75%; at p32 protein [2], 80%. In addition, at b1b2 domain of NRP-1, the “effect on RPARPAR peptide binding to NRP-1” value (“effect” for short) is recorded as “no effect”. The “perturbations in 1D 1H-aliphatic spectra of p32” value on p32 protein [4] is given as “caused similar perturbations; also recorded: shift in the peak at around −0.3 ppm”. Further, the inhibition at 25 µM at p32 protein [2] is 40.5%.

In turn, `Cc1ccc(-c2cnc(N)c(N3CCC(O)C3)n2)c(-n2cccn2)c1` (centres unmarked) [Compound 88361068, 1-{3-amino-6-[4-methyl-2-(1H-pyrazol-1-yl)phenyl]pryazin-2-yl}pyrrolidin-3-] registered an inhibition at 100 µM at p32 protein [3] of 20%. Besides, at b1b2 domain of NRP-1, the “effect” value is recorded as “no effect”. Besides, at p32 protein [2], the inhibition at 25 µM is 30.8% and the inhibition at 100 µM lay within 65 to 75%.

At p32 protein [3], `Cc1nc2nc3c(cn2n1)C(=O)CC(c1cccs1)C3` (centres unmarked) [Compound 9132086, 2-methyl-6-(2-thienyl)-6,7-dihydro[1,2,4]triazolo [5,1-b]quinazolin-8(5H)-one] had an inhibition at 100 µM of 20%. The “effect” value at b1b2 domain of NRP-1 is recorded as “no effect”. In addition, on p32 protein [2], at 25 µM the inhibition was 20.7% and the inhibition at 100 µM lay in the range of 65 to 75%.

Regarding `Cc1c(O)ccc2c(C(F)(F)F)cc(=O)oc12` [Compound 6367577, 7-hydroxy-8-methyl-4-(trifluoromethyl)-2H-chromen-2-one], the “FP level in the presence of compound” value on b1b2 domain of NRP-1 (highest concentration) is recorded as “negative value”. Also, at p32 protein [2], the “dose-dependent inhibition of FAM-TT1 binding to p32” value was “less effective than the other active compounds” and the inhibition at 25 µM turned out to be 39.5%.

Consider `Nc1nccc(N2CCC(C3CCN(Cc4cccnc4)CC3)C2)n1` (centres unmarked) [Compound 54778828, 4-{3-[1-(3-pyridinylmethyl)-4-piperidinyl]-1-pyrrolidinyl}-2-pyrimidinami], for which, at p32 protein [2], the “dose-dependent inhibition of FAM-TT1 binding to p32” value was “only marginally active” and testing at 25 µM gave an inhibition of 29.4%.

Turning to “FAM-TT1: FAM-labeled TT1 peptide, 5(6)-carboxyfluorescein with 6-aminohexanoic acid spacer ({FAM-Ahx}-CKRGARSTC; disulfide 1-9 (inferred))”, the “binding to b1b2 domain of NRP-1” value in assay [1] is “did not show binding”. Besides, the “homing to atherosclerotic plaques” value in the assay on atherosclerotic plaques is given as “signal was seen inside plaques”.
